Data reported in US11746103B2, “ALK-5 inhibitors and uses thereof” (Sumitomo Pharma Oncology, Inc., priority 2020, dated 2023).

Tests used:
ALK-5 = ALK-5 (Homo sapiens (Human), UniProt P36897); experiment: LanthaScreen Eu Kinase Binding Assay, ALK-5; settings: for IC50: read-out: Kinase Inhibition: ALK5 IC50
Method: Activity determinations and selectivity were conducted by Thermo Fisher Scientific “SelectScreen™ Biochemical Kinase Profiling Service” using their “LanthaScreen™ Eu Kinase Binding Assay Screening” (www.thermofisher.com/selectscreen). Binding of an Alexa Fluor™ conjugate or “tracer” to a kinase is detected by addition of a Eu-labeled anti-tag antibody. Binding of the tracer and antibody to a kinase results in a high degree of FRET, whereas displacement of the tracer with a kinase inhibitor results in a loss of FRET. This assay is carried out by mixing the compound tested with the reagents and reading, no development step is required. Life Technologies' Kinase Tracers are based on ATP-competitive kinase inhibitors, making them suitable for detection of any compounds that bind to the ATP site. Inhibitors that bind the ATP site include both Type I kinase inhibitors, which bind solely to the ATP site, and Type II inhibitors (e.g., Gleevec®/Imatinib, Sorafenib, BIRB-796), which bind to both the ATP site and a second site often referred to as the allosteric site. […] For 10 point titrations, 3-fold serial dilutions are conducted from the starting concentration (see Table 2 below). [table] All Kinase/Antibody Mixtures are diluted to a 2× working concentration in the specified kinase buffer. The 4× AlexaFluor labeled Tracer is prepared in Kinase Buffer. Bar-coded, low volume, white 384-well plate (Greiner Cat. #784207) […] 2. 3.84 μL—Kinase Buffer […] 4. 4.0 μL—4× Tracer 5. 30-second plate shake 6. 60-minute incubation at room temperature 7. […] The LanthaScreen Eu Kinase Binding Assay data is analyzed using the equations in Table 3 for each set of data points. [table] Data generated were plotted using the graphing software XLfit from IDBS. The dose response curve is curve fit to model number 205.

[1] = system: TGF-beta induced SMAD signaling; experiment: RDSR (RD SMAD reporter) Cellular Reporter Assay; type: cell-based; settings: Homo sapiens; 200 pg/ml rhTGF-beta1, 24 h; read-out: RD-SMAD reporter activity
Text: TGF-β signaling is triggered when the activated TGF-β homodimer binds to the TGF-β receptor 2, which in turn leads to the recruitment and phosphorylation of TGF-β receptor 1 (ALK5). Activated TGF-β receptor 1 phosphorylates the signal transduction molecules SMAD2 and SMAD3. These bind to common mediator SMAD4 and translocate to the nucleus where they bind to short conserved DNA sequences called the SMAD binding element and induce the transcription of various target genes. […] Certain example compounds were also or alternatively assayed using the RDSR Cellular Reporter Assay. Overview and Design: The RD SMAD reporter (RDSR) cell line was generated by stabily integrating the SMAD cellular reporter plasmid (Promega, pGL4.48[luc2P/SBE/Hygro]) into the human rhabdomyosarcoma cell line RD (ATCC, CCL-136). Once SMAD signaling is triggered, with, for example, the addition of TGF-β 1, receptor activated SMADs bind the SMAD binding elements (SBEs) leading to the expression of intracellular luciferase. To determine the potency of compounds at inhibiting TGF-beta induced SMAD signaling, the RDSR reporter system was utilized. The rhabdomyosarcoma line RD (ATCC, CCL-136) was transfected with a SMAD reporter vector (Promega, E3671) and a polyclonal stable cell line was selected using hygromycin B. The transfected vector contains three copies of a SMAD-binding element (SBE) that drive transcription of the luciferase reporter gene luc2P (Photinus pyralis). luc2P is a synthetically-derived luciferase sequence with humanized codon optimization that is designed for high expression and reduced anomalous transcription. The luc2P gene contains hPEST, a protein destabilization sequence, which allows luc2P protein levels to respond more quickly than those of luc2 to induction of transcription. The intracellular luciferase is quantified by the addition of equal volume (100 μl) of ONE-GLO substrate (Promega, E6120) and read within ten minutes on the Envision plate reader. The stable RDSR cell line was tested by evaluating the response to human TGF-β1 (R&D Systems, 7754-BH-005) as well as human myostatin (R&D Systems, 788-G8-010/CF) in a concentration dependent manner after twenty-four hours of stimulation. […] For compound evaluation, the tool drugs Galunisertib and Vactosertib were included as positive controls. The tool drugs and the compounds of the invention being tested were all incubated with cells for one hour at 37° C. before stimulation with 200 pg/ml rhTGF-beta1 for twenty-four hours. The activity of the reporter was determined with the addition of ONE-GLO (Promega) substrate and luminescence counts collected on the Envision plate reader (Perkin Elmer). […] The activity of compounds of the invention as determined using this method are reported in the third column of Table 1, below.

Sequence of ALK-5 (P36897 34-503): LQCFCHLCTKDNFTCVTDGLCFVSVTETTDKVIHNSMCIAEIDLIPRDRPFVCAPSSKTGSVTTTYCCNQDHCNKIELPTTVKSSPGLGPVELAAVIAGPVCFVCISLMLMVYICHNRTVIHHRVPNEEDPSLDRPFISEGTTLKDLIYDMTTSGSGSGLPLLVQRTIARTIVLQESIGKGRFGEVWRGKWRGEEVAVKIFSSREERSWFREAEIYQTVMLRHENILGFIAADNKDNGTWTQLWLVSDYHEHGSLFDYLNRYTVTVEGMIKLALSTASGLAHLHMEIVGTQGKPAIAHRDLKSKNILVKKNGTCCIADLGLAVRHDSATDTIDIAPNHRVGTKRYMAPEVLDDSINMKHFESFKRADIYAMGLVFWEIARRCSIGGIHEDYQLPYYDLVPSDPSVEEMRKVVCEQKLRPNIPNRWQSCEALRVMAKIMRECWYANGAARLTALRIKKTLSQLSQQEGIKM

Q: What does the source list for `Cc1cccc2c(Nc3ccnc(Nc4cc(F)cc(CN5CCN(C)CC5)c4)n3)cnnc12` [EX-42, N2-(3-fluoro-5-((4-methylpiperazin-1-yl)methyl)phenyl)-N4-(8-methylcinnolin-4-yl)pyrimidine-2,4-diamine]?
A: Kinase Selectivity: ALK2 IC50/ ALK5 IC50 (ALK-5): (+) (≤10=[+]); IC50 (ALK-5): < 0.01 µM; IC50 [1]: 0.1 to 1 µM

Q: How did the “Kinase Selectivity: ALK2 IC50/ ALK5 IC50” value (ALK-5) turn out when `Cc1cccc2c(Nc3ccnc(Nc4ccc(N5CCN(C)CC5)c(Cl)c4)n3)cnnc12` [EX-34, N2-(3-chloro-4-(4-methyl-piperazin-1-yl)-phenyl)-N4-(8-methylcinnolin-4-yl)pyrimidine-2,4-diamine] was run?
A: (++) (10<ALK2/ALK5<100=[++])

Q: What about the IC50 (ALK-5) of the same molecule?
A: < 0.01 µM

Q: And the IC50 [1]?
A: < 0.1 µM

Q: Which “Kinase Selectivity: ALK2 IC50/ ALK5 IC50” value (ALK-5) does the source give for `Cc1cccc2c(Nc3ccnc(Nc4ccc(C5CCOCC5)cc4)n3)cnnc12` [EX-46, N4-(8-methylcinnolin-4-yl)-N2-(4-(tetrahydro-2H-pyran-4-yl)phenyl)pyrimidine-2,4-diamine] here?
A: (++) (10<ALK2/ALK5<100=[++])

Q: And the IC50 (ALK-5)?
A: < 0.01 µM

Q: And the IC50 [1]?
A: < 0.1 µM

Q: Which “Kinase Selectivity: ALK2 IC50/ ALK5 IC50” value (ALK-5) does the source give for `Cc1cccc2c(Nc3ccnc(Nc4ccc(C5CCCCC5)cc4)n3)cnnc12` [EX-56, N2-(4-cyclohexylphenyl)-N4-(8-methylcinnolin-4-yl)pyrimidine-2,4-diamine] here?
A: (+++) (100≤ALK2/ALK5=[+++])

Q: What about the IC50 (ALK-5) of the same molecule?
A: < 0.01 µM

Q: What about the IC50 [1] of the same molecule?
A: 0.1 to 1 µM

Q: Which “Kinase Selectivity: ALK2 IC50/ ALK5 IC50” value (ALK-5) does the source give for `Cc1cccc2c(Nc3nc(Nc4ccc(N5CCN(C)CC5)cc4)ncc3F)cnnc12` [EX-32, 5-fluoro-N4-(8-methylcinnolin-4-yl)-N2-(4-(4-methylpiperazin-1-yl)phenyl)pyrimidine-2,4-diamine] here?
A: (++) (10<ALK2/ALK5<100=[++])

Q: What about the IC50 (ALK-5) of the same molecule?
A: 0.01 to 0.1 µM

Q: What about the IC50 [1] of the same molecule?
A: 0.1 to 1 µM

Q: What does the source list for `Cc1nnc2c(C)cccc2c1Nc1ccnc(Nc2cccc(N3CCOCC3)c2)n1` [EX-51, N4-(3,8-dimethylcinnolin-4-yl)-N2-(3-morpholinophenyl)pyrimidine-2,4-diamine]?
A: Kinase Selectivity: ALK2 IC50/ ALK5 IC50 (ALK-5): (+) (≤10=[+]); IC50 (ALK-5): < 0.01 µM; IC50 [1]: 0.1 to 1 µM

Q: Which “Kinase Selectivity: ALK2 IC50/ ALK5 IC50” value (ALK-5) does the source give for `Cc1cccc2c(Nc3ccnc(Nc4cccc(S(N)(=O)=O)c4)n3)cnnc12` [EX-35, 3-((4-((8-methylcinnolin-4-yl)amino)-pyrimidin-2-yl)amino)benzenesulfonamide] here?
A: (+) (≤10=[+])

Q: And the IC50 (ALK-5)?
A: < 0.01 µM

Q: What about the IC50 [1] of the same molecule?
A: < 0.1 µM

Q: Which results are given for `Cc1cccc2c(Nc3ccnc(Nc4ccc(N5CC6CCC(C5)N6C)cc4)n3)cnnc12` [EX-27, N2-(4-(8-methyl-3,8-diazabicyclo[3.2.1]octan-3-yl)phenyl)-N4-(8-methylcinnolin-4-yl)pyrimidine-2,4-diamine]?
A: Kinase Selectivity: ALK2 IC50/ ALK5 IC50 (ALK-5): (++) (10<ALK2/ALK5<100=[++]); IC50 (ALK-5): < 0.01 µM; IC50 [1]: < 0.1 µM

Q: Which “Kinase Selectivity: ALK2 IC50/ ALK5 IC50” value (ALK-5) does the source give for `c1cc(Nc2nccc(Nc3cnnc4c(C5CC5)cccc34)n2)cc(N2CCOCC2)c1` [EX-57, N4-(8-cyclopropylcinnolin-4-yl)-N2-(3-morpholinophenyl)pyrimidine-2,4-diamine] here?
A: (++) (10<ALK2/ALK5<100=[++])

Q: What about the IC50 (ALK-5) of the same molecule?
A: < 0.01 µM

Q: What about the IC50 [1] of the same molecule?
A: < 0.1 µM

Q: Which “Kinase Selectivity: ALK2 IC50/ ALK5 IC50” value (ALK-5) does the source give for `Cc1cccc2c(Nc3ccnc(Nc4cc(F)cc(N5CCOCC5)c4)n3)cnnc12` [EX-44, N2-(3-fluoro-5-morpholinophenyl)-N4-(8-methylcinnolin-4-yl)pyrimidine-2,4-diamine] here?
A: (++) (10<ALK2/ALK5<100=[++])

Q: And the IC50 (ALK-5)?
A: < 0.01 µM

Q: What about the IC50 [1] of the same molecule?
A: < 0.1 µM

Q: Which results are given for `Cc1cccc2c(Nc3ccnc(Nc4ccc(CN5CCOCC5)cc4)n3)cnnc12` [EX-25, N4-(8-methylcinnolin-4-yl)-N2-(4-(morpholinomethyl)phenyl)pyrimidine-2,4-diamine]?
A: Kinase Selectivity: ALK2 IC50/ ALK5 IC50 (ALK-5): (++) (10<ALK2/ALK5<100=[++]); IC50 (ALK-5): < 0.01 µM; IC50 [1]: < 0.1 µM

Q: Which results are given for `Cc1cccc2c(Nc3ccnc(Nc4ccc(N5CCN(C)CC5)c(F)c4)n3)cnnc12` [EX-53, N2-(3-fluoro-4-(4-methylpiperazin-1-yl)phenyl)-N4-(8-methylcinnolin-4-yl)pyrimidine-2,4-diamine]?
A: Kinase Selectivity: ALK2 IC50/ ALK5 IC50 (ALK-5): (++) (10<ALK2/ALK5<100=[++]); IC50 (ALK-5): < 0.01 µM; IC50 [1]: < 0.1 µM

Q: `Cc1c(F)ccc2c(Nc3ccnc(Nc4cccc(N5CCOCC5)c4)n3)cnnc12` [EX-40, N4-(7-fluoro-8-methylcinnolin-4-yl)-N2-(3-morpholinophenyl)pyrimidine-2,4-diamine] was tested. Which “Kinase Selectivity: ALK2 IC50/ ALK5 IC50” value (ALK-5) did it give?
A: (++) (10<ALK2/ALK5<100=[++])

Q: And the IC50 (ALK-5)?
A: < 0.01 µM

Q: What about the IC50 [1] of the same molecule?
A: < 0.1 µM

Q: How did the “Kinase Selectivity: ALK2 IC50/ ALK5 IC50” value (ALK-5) turn out when `Cc1cccc2c(Nc3ccnc(Nc4ccc(CN5CCNCC5)cc4)n3)cnnc12` [EX-20, N4-(8-methyl-cinnolin-4-yl)-N2-(4-(piperazin-1-yl-methyl)phenyl)pyrimidine-2,4-diamine] was run?
A: (++) (10<ALK2/ALK5<100=[++])

Q: What about the IC50 (ALK-5) of the same molecule?
A: < 0.01 µM

Q: And the IC50 [1]?
A: < 0.1 µM

Q: With `CN1CCN(c2ccc(Nc3nccc(Nc4cnnc5c(Cl)cccc45)n3)cc2)CC1` [EX-49, N4-(8-chlorocinnolin-4-yl)-N2-(4-(4-methylpiperazin-1-yl)phenyl)pyrimidine-2,4-diamine] as the molecule, how does the “Kinase Selectivity: ALK2 IC50/ ALK5 IC50” value (ALK-5) read?
A: (++) (10<ALK2/ALK5<100=[++])

Q: What about the IC50 (ALK-5) of the same molecule?
A: < 0.01 µM

Q: What about the IC50 [1] of the same molecule?
A: < 0.1 µM

Q: For `Cc1nnc2c(C)cccc2c1Nc1ccnc(Nc2ccc(N3CCOCC3)cc2)n1` [EX-52, N4-(3,8-dimethylcinnolin-4-yl)-N2-(4-morpholinophenyl)pyrimidine-2,4-diamine], which “Kinase Selectivity: ALK2 IC50/ ALK5 IC50” value (ALK-5) is on record?
A: (+) (≤10=[+])

Q: And the IC50 (ALK-5)?
A: < 0.01 µM

Q: What about the IC50 [1] of the same molecule?
A: 0.1 to 1 µM

Q: Which results are given for `Cc1cccc2c(Nc3ccnc(Nc4ccc(N5CCCCC5)cc4)n3)cnnc12` [EX-55, N4-(8-methylcinnolin-4-yl)-N2-(4-(piperidin-1-yl)phenyl)pyrimidine-2,4-diamine]?
A: Kinase Selectivity: ALK2 IC50/ ALK5 IC50 (ALK-5): (++) (10<ALK2/ALK5<100=[++]); IC50 (ALK-5): < 0.01 µM; IC50 [1]: < 0.1 µM

Q: Which results are given for `Cc1cccc2c(Nc3ccnc(Nc4ccc(N5CCN(C)CC5)nc4)n3)cnnc12` [EX-23, N4-(8-methylcinnolin-4-yl)-N2-(6-(4-methylpiperazin-1-yl)pyridin-3-yl)pyrimidine-2,4-diamine]?
A: Kinase Selectivity: ALK2 IC50/ ALK5 IC50 (ALK-5): (++) (10<ALK2/ALK5<100=[++]); IC50 (ALK-5): < 0.01 µM; IC50 [1]: < 0.1 µM

Q: What does the source list for `Cc1cccc2c(Nc3ccnc(Nc4ccc(N5CCN(CC(F)(F)F)CC5)cc4)n3)cnnc12` [EX-17, N4-(8-methyl-cinnolin-4-yl)-N2-(4-(4-(2,2,2-trifluoroethyl)-piperazin-1-yl)phenyl)-pyrimidine-2,4-diamine]?
A: Kinase Selectivity: ALK2 IC50/ ALK5 IC50 (ALK-5): (++) (10<ALK2/ALK5<100=[++]); IC50 (ALK-5): < 0.01 µM; IC50 [1]: < 0.1 µM

Q: What does the source list for `Cc1c(F)ccc2c(Nc3ccnc(Nc4ccc(N5CCNCC5)cc4)n3)cnnc12` [EX-02, N4-(7-fluoro-8-methylcinnolin-4-yl)-N2-(4-(piperazin-1-yl)phenyl)-pyrimidine-2,4-diamine]?
A: Kinase Selectivity: ALK2 IC50/ ALK5 IC50 (ALK-5): (++) (10<ALK2/ALK5<100=[++]); IC50 (ALK-5): < 0.01 µM; IC50 [1]: < 0.1 µM

Q: How did the “Kinase Selectivity: ALK2 IC50/ ALK5 IC50” value (ALK-5) turn out when `Cc1cccc2c(Nc3ccnc(Nc4ccc(N5CCN(CCO)CC5)cc4)n3)cnnc12` [EX-37, 2-(4-(4-((4-((8-methylcinnolin-4-yl)amino)pyrimidin-2-yl)amino)phenyl)piperazin-1-yl)ethan-1-ol] was run?
A: (++) (10<ALK2/ALK5<100=[++])

Q: What about the IC50 (ALK-5) of the same molecule?
A: < 0.01 µM

Q: What about the IC50 [1] of the same molecule?
A: < 0.1 µM
